{"source": "patent US11357779B2", "about": "(G1 Therapeutics, Inc., priority 2018, dated 2022)", "key": {"[1]": {"system": "HR+, HER2− locally advanced or metastatic breast cancer", "assay": "Clinical efficacy of Form B of Compound II plus fulvestrant, RECIST Version 1.1", "assay_type": "in vivo, human", "settings": "FIG. 3, FIG. 4; with fulvestrant", "procedure": "Target lesions in subjects from Example 1 were evaluated every 8 weeks using the RECIST, Version 1.1 criteria (Eisenhower 2009) as follows: • Complete Response (CR): Disappearance of all target lesions. Any pathological lymph nodes (whether target or nontarget) must have reduction in short axis to <10 mm. • Partial Response (PR): At least a 30% decrease in the sum of diameters of target lesions, taking as reference the baseline sum of diameters. • Progressive Disease (PD): At least a 20% increase in the sum of diameters of target lesions, taking as reference the smallest sum on study (this includes the baseline sum if that is the smallest on study). […] A response category of not evaluable (NE) was used when there was inadequate information to otherwise categorize the response status. • Non-target lesions were evaluated using the following criteria: • Complete Response (CR): Disappearance of all nontarget lesions and normalization of tumor marker level. […]\nThe overall response (OR) was determined by evaluation of the combination of target and nontarget lesion responses as outlined in Table 94.\nThe clinical efficacy of the combination of Form B of Compound II and fulvestrant for QD dosing for the subjects from Example 1 was evaluated using the above criteria. […]"}, "[2]": {"assay": "Six- and twelve-month stability study of Form B at 25° C./60% RH and 40° C./75% RH", "assay_type": "physicochemical", "procedure": "Form B was stored at 25° C./60% RH for twelve months and at 40° C./75% RH for six months."}, "[3]": {"assay": "clinical", "settings": "human, in vivo"}, "[4]": {"system": "tumor", "settings": "mice, single dosage of 100 mg/kg; cited from earlier work"}, "[5]": {"assay": "Apparent volume of distribution (Vd/F)", "assay_type": "in vivo", "settings": "human, plasma, oral; 200 mg QD of compound II", "procedure": "“Vd/F” (Liters) as used herein means the theoretical volume that would be necessary to contain the total amount of an administered drug at the same concentration that it is observed in the blood plasma. It is generally defined as the distribution of a medication between plasma and the rest of the body after oral or parenteral dosing. “Vd/F” as used herein is calculated by using the terminal elimination rate constant, which is derived mathematically from the concentration vs time curve to extrapolate a value of plasma concentration at time zero. Volume of distribution for oral drugs is normally expressed as Vd/F or Vz/F. The skilled artisan is familiar with calculating Vd/F or Vz/F.\nThe apparent volume of distribution (Vd/F) was calculated from the terminal rate constant (ke) derived from the plasma concentration-versus-time data provided for Compound I in Example 1 when dosed with 200 mg QD of Form B of Compound II."}, "[6]": {"assay": "TG and TG-IR analysis of Form B", "assay_type": "physicochemical", "procedure": "The TG analyses were performed using a TA Instrument Q5000 thermogravimetric analyzer. Temperature calibration was performed using nickel and Alumel. The sample was placed in a platinum pan and inserted into the TG furnace. The furnace was heated under a nitrogen purge to 350° C. at a rate of 10° C./min.\nThermogravimetric infrared (TG-IR) analysis was performed on a TA Instruments Q5000 IR thermogravimetric (TG) analyzer interfaced to a Magna-IR 560@ Fourier transform infrared (FT-IR) spectrophotometer (Thermo Nicolet) equipped with an Ever-Glo mid/far IR source, a potassium bromide (KBr) beamsplitter, and a mercury cadmium telluride (MCT-A) detector. The FT-IR wavelength verification was performed using polystyrene, and the TG calibration standards were nickel and Alumel™. The sample was placed in a platinum sample pan and the pan was inserted into the TG furnace. The TG instrument was started first, immediately followed by the FT-IR instrument. The TG instrument was operated under a flow of helium at 90 and 10 cc/minute for the purge and balance, respectively. The furnace was heated under helium at a rate of 20° C./minute to a final temperature of approximately 140° C. IR spectra were collected approximately every 32 seconds for approximately 7.5 minutes. Each IR spectrum represents 32 co-added scans collected at a spectral resolution of 4 cm-1. Volatiles were identified from a search of the High Resolution Nicolet Vapor Phase spectral library.\nA TG-IR experiment was carried out on pure Form B (Sample 11 from the small-scale slurry experiments) at […] in an effort to investigate the stability of Form B at elevated temperature by monitoring potential release of hydrogen chloride."}}}
{"smiles": "CC(C)N1CCN(c2ccc(Nc3ncc4cc5n(c4n3)C3(CCCCC3)CNC5=O)nc2)CC1", "note": "[Form B]", "values": [{"measurement": "anti-tumor activity (waterfall and spider plots, target lesions)", "setting": "[1]", "result": "effective anti-tumor activity"}, {"measurement": "long-term stability, time stable", "setting": "[2]; 25° C. and 60% relative humidity", "result": "at least 1 year"}, {"measurement": "Appearance", "setting": "[2]; 25° C./60% RH, 0M", "result": "Yellow"}, {"measurement": "HPLC Purity", "setting": "[2]; 25° C./60% RH, 0M", "result": 99.5, "unit": "%"}, {"measurement": "Moisture (%)", "setting": "[2]; 25° C./60% RH, 0M", "result": 4.9, "unit": "%"}, {"measurement": "XRPD", "setting": "[2]; 25° C./60% RH, 0M", "result": "Form B"}, {"measurement": "Appearance", "setting": "[2]; 25° C./60% RH, 3M", "result": "Yellow"}, {"measurement": "HPLC Purity", "setting": "[2]; 25° C./60% RH, 3M", "result": 99.5, "unit": "%"}, {"measurement": "Moisture (%)", "setting": "[2]; 25° C./60% RH, 3M", "result": 4.07, "unit": "%"}, {"measurement": "Appearance", "setting": "[2]; 25° C./60% RH, 6M", "result": "Yellow"}, {"measurement": "HPLC Purity", "setting": "[2]; 25° C./60% RH, 6M", "result": 99.5, "unit": "%"}, {"measurement": "Moisture (%)", "setting": "[2]; 25° C./60% RH, 6M", "result": 7.53, "unit": "%"}, {"measurement": "Appearance", "setting": "[2]; 25° C./60% RH, 9M", "result": "Yellow"}, {"measurement": "HPLC Purity", "setting": "[2]; 25° C./60% RH, 9M", "result": 99.6, "unit": "%"}, {"measurement": "Moisture (%)", "setting": "[2]; 25° C./60% RH, 9M", "result": 7.29, "unit": "%"}, {"measurement": "Appearance", "setting": "[2]; 25° C./60% RH, 12M", "result": "Yellow"}, {"measurement": "HPLC Purity", "setting": "[2]; 25° C./60% RH, 12M", "result": 99.5, "unit": "%"}, {"measurement": "Moisture (%)", "setting": "[2]; 25° C./60% RH, 12M", "result": 7.48, "unit": "%"}, {"measurement": "XRPD", "setting": "[2]; 25° C./60% RH, 12M", "result": "Form B"}, {"measurement": "XRPD spectrum at the longest time point studied", "setting": "[2]; 25° C./60% RH, twelve months", "result": "conformed to the reference spectrum"}, {"measurement": "purity at the longest time point studied", "setting": "[2]; 25° C./60% RH, twelve months", "result": 99.5, "unit": "%"}, {"measurement": "Appearance", "setting": "[2]; 40° C./75% RH, 0M", "result": "Yellow solid"}, {"measurement": "HPLC Purity", "setting": "[2]; 40° C./75% RH, 0M", "result": 99.5, "unit": "%"}, {"measurement": "Moisture (%)", "setting": "[2]; 40° C./75% RH, 0M", "result": 4.9, "unit": "%"}, {"measurement": "XRPD", "setting": "[2]; 40° C./75% RH, 0M", "result": "Form B"}, {"measurement": "Appearance", "setting": "[2]; 40° C./75% RH, 1M", "result": "Yellow solid"}, {"measurement": "HPLC Purity", "setting": "[2]; 40° C./75% RH, 1M", "result": 99.5, "unit": "%"}, {"measurement": "Moisture (%)", "setting": "[2]; 40° C./75% RH, 1M", "result": 2.75, "unit": "%"}, {"measurement": "Appearance", "setting": "[2]; 40° C./75% RH, 3M", "result": "Yellow solid"}, {"measurement": "HPLC Purity", "setting": "[2]; 40° C./75% RH, 3M", "result": 99.5, "unit": "%"}, {"measurement": "Moisture (%)", "setting": "[2]; 40° C./75% RH, 3M", "result": 7.47, "unit": "%"}, {"measurement": "XRPD", "setting": "[2]; 40° C./75% RH, 3M", "result": "Form B"}, {"measurement": "Appearance", "setting": "[2]; 40° C./75% RH, 6M", "result": "Yellow solid"}, {"measurement": "HPLC Purity", "setting": "[2]; 40° C./75% RH, 6M", "result": 99.5, "unit": "%"}, {"measurement": "Moisture (%)", "setting": "[2]; 40° C./75% RH, 6M", "result": 7.53, "unit": "%"}, {"measurement": "XRPD", "setting": "[2]; 40° C./75% RH, 6M", "result": "Form B"}, {"measurement": "XRPD spectrum at the longest time point studied", "setting": "[2]; 40° C./75% RH, six months", "result": "conformed to the reference spectrum"}, {"measurement": "purity at the longest time point studied", "setting": "[2]; 40° C./75% RH, six months", "result": 99.5, "unit": "%"}]}
{"smiles": "CC(C)N1CCN(c2ccc(Nc3ncc4cc5n(c4n3)C3(CCCCC3)CNC5=O)nc2)CC1", "note": "[Compound I, 2′-((5-(4-isopropylpiperazin-1-yl)pyridin-2-yl)amino)-7′,8′-dihydro-6′H-spiro[cyclohexane-1,9′-pyrazino[1′,2′:1,5]pyrrolo[2,3-d]pyrimidin]-6′-one]", "values": [{"measurement": "AUC(0-t)", "setting": "[3]; 200 mg", "result": 229, "unit": "ng·h/mL"}, {"measurement": "AUC(0-t)", "setting": "[3]; 300 mg", "result": 592, "unit": "ng·h/mL"}, {"measurement": "AUC(0-t)", "setting": "[3]; 400 mg", "result": 278, "unit": "ng·h/mL"}, {"measurement": "AUC(0-t)", "setting": "[3]; 500 mg", "result": 607, "unit": "ng·h/mL"}, {"measurement": "(AUC0-24,ss)/ANC", "setting": "[3]; 650 mg", "result": 0.89}, {"measurement": "AUC(0-t)", "setting": "[3]; 650 mg", "result": 956, "unit": "ng·h/mL"}, {"measurement": "distribution to tumor", "setting": "[4]", "result": "concentrates in the tumor"}, {"measurement": "Vd/F", "setting": "[5]", "result": 15200, "unit": "L"}]}
{"smiles": "CC(C)N1CCN(c2ccc(Nc3ncc4cc5n(c4n3)C3(CCCCC3)CNC5=O)nc2)CC1", "note": "[Compound II, 2′-((5-(4-isopropylpiperazin-1-yl)pyridin-2-yl)amino)-7′,8′-dihydro-6′H-spiro[cyclohexane-1,9′-pyrazino[1′,2′:1,5]pyrrolo[2,3-d]pyrimidin]-6′-one]", "values": [{"measurement": "TGA weight loss", "setting": "[6]; at 26-120° C., 125 mg/mL Slurry, 30° C., 43 h VF, washed, Air-dried for 3.5 h", "result": 10, "unit": "% weight loss at 26-"}, {"measurement": "TGA weight loss", "setting": "[6]; at 26-120° C., Vacuum drying, 22° C., 0.5 h, 15 in Hg, 22° C. 1.5 h, 27-28 in Hg", "result": 9.9, "unit": "% weight loss at 26-"}, {"measurement": "TGA weight loss", "setting": "[6]; at 31-120° C., Vacuum drying, 22° C., 2.0 h, 27 in Hg", "result": 7.5, "unit": "% weight loss at 31-"}]}
